# Results as given in patent US20240124483A1, “Methods for the Treatment of Fibrotic Disease” (SHY Therapeutics, LLC, priority 2021, published 2024).
# Like-named read-outs stand apart in the source and are kept apart here.
# Experiments:
# [1] = test system: ERK1/2 phosphorylation; test: Western ERK1/2 Cell-Based Phosphorylation Assay; settings: Homo sapiens, PANC-1, 6 hours, EGF 1.5 ng/ml, read-out: % inh of ERK1/2 phosphorylation in PANC-1
# Method: Cell lines: Human tumor-derived pancreatic cancer cell line Panc-1 was purchased from American Type Culture Collection and grown in complete DMEM-High Glucose, supplemented with penicillin (100 U/mL), streptomycin (100 μg/mL), and 10% heat-inactivated FBS at 37° C. in a humidified incubator with 5% CO2.
# (§1) Method: Cells were plated at 350000 cells/well density in a 12-well plate, allowed 3 hours to adhere to the plate, then starved in the appropriate medium in the presence of 0.5% FBS overnight. The small molecules to be tested were added to the cells in the final concentration of 10 μM in the presence of 0.3% DMSO for 6 hours incubation at 37° C. For IC50 value determination, serial dilutions of compounds were added to cells under the same conditions. Next, cells were stimulated with 1.5 ng/ml EGF for 15 minutes then cells were lysed with lysis buffer containing 1% Triton X-100, EDTA, and Halt™ Protease & Phosphatase Inhibitor Cocktail (Thermo Scientific). Protein concentration was assessed by BCA protein assay (Thermo Scientific). Phosphorylation level of ERK1/2 was determined by western blot.
# (§2) Western blot protocol: Equal amounts of protein (15-50 μg) were separated by SDS-PAGE and transferred to nitrocellulose membranes (Invitrogen by Thermo Fisher Scientific). The membrane was stained with Ponceau S Stain (Boston BioProducts) to verify uniform protein loading. Membranes were blocked with 10% milk and phosphorylation levels of ERK1/2 were assessed by incubating overnight at 4° C. with anti-phospho-p44/42 (Thr202/Tyr204) antibody (Cell Signaling) followed by HRP-conjugated secondary antibody (Jackson Immunoresearch, West Grove, PA). Bands were incubated in Amersham ECL Prime Western Blotting Detection Reagent (GE Healthcare) and visualized using the ChemiDoc MP imaging system (Bio-Rad).
# [2] = test system: AKT phosphorylation; test: Western AKT Cell-Based Phosphorylation Assay; settings: Homo sapiens, PANC-1, 6 hours, EGF 1.5 ng/ml, read-out: % inh of AKT phosphorylation in PANC-1
# Method: Human tumor-derived pancreatic cancer cell line Panc-1 was purchased from American Type Culture Collection and grown in complete DMEM-High Glucose supplemented with penicillin (100 U/mL), streptomycin (100 μg/mL), and 10% heat-inactivated FBS at 37° C. in a humidified incubator with 5% CO2.
# as §1, with “C.” for “C. For IC50 value determination, serial dilutions of compounds were added to cells under the same conditions.”, “Akt” for “ERK1/2”
# as §2, with “Akt” for “ERK1/2”, “anti-phospho-Akt (Ser473)” for “anti-phospho-p44/42 (Thr202/Tyr204)”
# [3] = test system: MiaPaca2; test: MiaPaca2 proliferation; assay type: cell-based; settings: Homo sapiens, MIA PaCa-2; for inhibition at 10 µM: read-out: % inh of proliferation in MiaPaca2
# [4] = target: KRas Q61H mutant (Homo sapiens (Human), UniProt P01116, Q61H); test: Ras GTP Binding Domain Inhibition Assay, KRas Q61H mutant; settings: 20 μM
# Outline: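 His-tagged KRas proteins coated on nickel plates overnight at 4° C in Tris buffer (pH 7.4 or 7.0, MgCl2, DTT); compounds at 20 μM final (or serial dilutions for IC50) for 3 h at room temperature, ±Sos (residues 556-1049) in final hour. Bound Cy3- or Cy5-GTP (100 nM, 45 min) read by fluorescence after washing.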
# [5] = + SOS, read-out: KRas Q61H mutant + SOS: % inh.
# [6] = without SOS, read-out: KRas Q61H mutant: % inh.
# KRas Q61H mutant, sequence (P01116 other isoform, or with tags, fused parts or gaps Q61H): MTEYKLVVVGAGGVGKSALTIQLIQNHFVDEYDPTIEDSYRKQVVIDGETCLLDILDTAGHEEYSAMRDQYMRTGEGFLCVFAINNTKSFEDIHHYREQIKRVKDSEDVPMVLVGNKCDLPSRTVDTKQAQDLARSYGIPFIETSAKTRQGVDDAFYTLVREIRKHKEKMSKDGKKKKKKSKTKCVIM
SMILES,inhibition at 10 µM [1] [%],inhibition at 10 µM [2] [%],IC50 [3] [µM],inhibition at 10 µM [3] [%],"inhibition at 20 µM [4, 5] [%]","inhibition at 20 µM [4, 6] [%]"
"COCCCCn1c(-c2nccn2C)nc2sc(-c3ccn(C(C)C)n3)c(C)c2c1=O [Compound 33, 6-(1-Isopropyl-1H-pyrazol-3-yl)-3-(4-methoxybutyl)-5-methyl-2-(1-methyl-1H-imidazol-2-yl)thieno[2,3-d]pyrimidin-4(3H)-one]",0,0,> 10,0,1 to 25,0
"COCCOc1nc(-c2nccn2C)nc2sc(-c3ccn(C(C)C)n3)c(C)c12 [Compound 30, 6-(1-Isopropyl-1H-pyrazol-3-yl)-4-(2-methoxyethoxy)-5-methyl-2-(1-methyl-1H-imidazol-2-yl)thieno[2,3-d]pyrimidine]",0,0,> 10,1 to 25,1 to 25,0
"COc1cc(-c2sc3nc(-c4nccn4C)nc(N[C@H]4C[C@H](OC)C4)c3c2-c2ccccc2)ccn1 [Compound 46, N-((1r,3r)-3-Methoxycyclobutyl)-6-(2-methoxypyridin-4-yl)-2-(1-methyl-1H-imidazol-2-yl)-5-phenylthieno[2,3-d]pyrimidin-4-amine]",76 to 100,1 to 25,1 to 4.99,76 to 100,76 to 100,76 to 100
"COCCn1c(-c2nccn2C)nc2sc(-c3ccn(C(C)C)n3)c(C)c2c1=O [Compound 29, 6-(1-Isopropyl-1H-pyrazol-3-yl)-3-(2-methoxyethyl)-5-methyl-2-(1-methyl-1H-imidazol-2-yl)thieno[2,3-d]pyrimidin-4(3H)-one]",0,0,5 to 10,46 to 75,76 to 100,46 to 75
"COc1cccc(-c2sc3nc(-c4nccn4C)nc(N[C@@H]4CC[C@@H](OC)C4)c3c2C)c1F (racemic) [Compound 43, rac-6-(2-Fluoro-3-methoxyphenyl)-N-((1R,3R)-3-methoxycyclopentyl)-5-methyl-2-(1-methyl-1H-imidazol-2-yl)thieno[2,3-d]pyrimidin-4-amine]",46 to 75,0,5 to 10,46 to 75,76 to 100,26 to 45
"COCCOCCNc1nc(-c2nccn2C)nc2sc(-c3ccn(C(C)C)n3)c(C)c12 [Compound 21, 6-(1-Isopropyl-1H-pyrazol-3-yl)-N-(2-(2-methoxyethoxy)ethyl)-5-methyl-2-(1-methyl-1H-imidazol-2-yl)thieno[2,3-d]pyrimidin-4-amine]",0,1 to 25,5 to 10,76 to 100,76 to 100,76 to 100
"COCCCCOc1nc(-c2nccn2C)nc2sc(-c3ccn(C(C)C)n3)c(C)c12 [Compound 34, 6-(1-Isopropyl-1H-pyrazol-3-yl)-4-(4-methoxybutoxy)-5-methyl-2-(1-methyl-1H-imidazol-2-yl)thieno[2,3-d]pyrimidine]",0,0,> 10,26 to 45,1 to 25,0
"COCC1(OC)CCN(c2nc(-c3nccn3C)nc3sc(-c4ccn(C(C)C)n4)c(C)c23)C1 (racemic) [Compound 27, rac-6-(1-Isopropyl-1H-pyrazol-3-yl)-4-(3-methoxy-3-(methoxymethyl)pyrrolidin-1-yl)-5-methyl-2-(1-methyl-1H-imidazol-2-yl)thieno[2,3-d]pyrimidine]",1 to 25,26 to 45,5 to 10,76 to 100,76 to 100,46 to 75
"COc1cccc(-c2sc3nc(-c4nccn4C)nc(N[C@@H]4CC[C@@H](OC)C4)c3c2-c2ccccc2)c1F (racemic) [Compound 41, 6-(2-Fluoro-3-methoxyphenyl)-N-((1R,3R)-3-methoxycyclopentyl)-2-(1-methyl-1H-imidazol-2-yl)-5-phenylthieno[2,3-d]pyrimidin-4-amine]",76 to 100,76 to 100,1 to 4.99,76 to 100,76 to 100,26 to 45
"Cc1c(-c2ccn(C(C)C)n2)sc2nc(-c3nccn3C)nc(NCCN3CCOCC3)c12 [Compound 22, 6-(1-Isopropyl-1H-pyrazol-3-yl)-5-methyl-2-(1-methyl-1H-imidazol-2-yl)-N-(2-morpholinoethyl)thieno[2,3-d]pyrimidin-4-amine]",0,1 to 25,5 to 10,76 to 100,76 to 100,76 to 100
"CO[C@H]1C[C@H](CNc2nc(-c3nccn3C)nc3sc(-c4ccn(C(C)C)n4)c(C)c23)C1 [Compound 16, 6-(1-Isopropyl-1H-pyrazol-3-yl)-N-(((1r,3r)-3-methoxycyclobutyl)methyl)-5-methyl-2-(1-methyl-1H-imidazol-2-yl)thieno[2,3-d]pyrimidin-4-amine]",76 to 100,0,< 1,76 to 100,46 to 75,46 to 75
"CO[C@H]1CNC[C@@H](Nc2nc(-c3nccn3C)nc3sc(-c4ccn(C(C)C)n4)cc23)C1 [Compound 28, 6-(1-Isopropyl-1H-pyrazol-3-yl)-N-((3S,5R)-5-methoxypiperidin-3-yl)-2-(1-methyl-1H-imidazol-2-yl)thieno[2,3-d]pyrimidin-4-amine]",46 to 75,26 to 45,5 to 10,76 to 100,76 to 100,46 to 75
"Cc1c(-c2ccn(C(C)C)n2)sc2nc(-c3nccn3C)nc(NCC3CN(C)CCO3)c12 (racemic) [Compound 25, rac-6-(1-Isopropyl-1H-pyrazol-3-yl)-5-methyl-2-(1-methyl-1H-imidazol-2-yl)-N-((4-methylmorpholin-2-yl)methyl)thieno[2,3-d]pyrimidin-4-amine]",0,1 to 25,5 to 10,46 to 75,76 to 100,76 to 100
